# Columns and labels:
# [1] = test system: acetylated histone H3 in Colo205 cells; assay: Histone acetylation assay (immuno-blotting with acetylated histone H3 antibody); format: cell-based, human; conditions: 10 μM, 24 h, western blot
# Description: Histone Acetylation Assay
# A hallmark of histone deacetylase (HDAC) inhibition is the increase in the acetylation level of histones. Histone acetylation, including H3, H4 and H2A can be detected by immuno-blotting (western-blot). Colo205 cells, approximately 5×10^5 cells, were seeded in the previously described medium, cultivated for 24 h and subsequently treated with HDAC inhibitory agents and a positive control at 10 μM final concentration. After 24 h, cells were harvested and lysed according to the instruction from Sigma Mammalian Cell Lysis Kit. The protein concentration was quantified using BCA method (Sigma Pte Ltd). The protein lysate was separated using 4-12% bis-tris SDS-PAGE gel (Invitrogen Pte Ltd) and was transferred onto PVDF membrane (BioRad Pte Ltd). The membrane was probed using primary antibody specific for acetylated histone H3 (Upstate Pte Ltd). The detection antibody, goat anti rabbit antibody conjugated with HRP was used according to the manufacturing instruction (Pierce Pte Ltd). After removing the detection antibody from the membrane, an enhanced chemiluminescent substrate for detection of HRP (Pierce Pte Ltd) was added onto the membrane. After removing the substrate, the membrane was exposed to an X-ray film (Kodak) for 1 sec-20 mins. The X-ray film was developed using the X-ray film processor. The density of each band observed on the developed film could be qualitatively analysed using UVP Bioimaging software (UVP, Inc, Upland, Calif.). The values were then normalized against the density of actin in the corresponding samples to obtain the expression of the protein.
# The results of immuno-blotting assay using acetylated histone H3 antibody are shown in Table 5 for representative compounds of this invention.
# Colo205 cells = assay: Cell-based proliferation assay for determination of GI50 values (CyQUANT); set-up: species or system human; conditions: Homo sapiens
# How it was run: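 Colo205 cells in RPMI 1640 with 5% FBS, seeded 5000/well and grown 24 h at 37 °C. Exposure to compound lasted 96 h, with growth read by CyQUANT. GI50 = concentration giving 50% growth inhibition, from dose-response curves.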
# [2] = molecular target: HDAC1 enzyme (recombinant GST-HDAC1) (Homo sapiens (Human), UniProt Q13547); assay: In vitro HDAC assay for determination of IC50 values (BIOMOL fluorescent-based HDAC activity assay); format: biochemical; conditions: Flur de lys substrate, 2 h room temperature, read-out: IC50 (HDAC 1)
# How it was run: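 Recombinant human GST-HDAC1, baculovirus-expressed in SF9 cells and glutathione-purified, tested with a fluorogenic deacetylase substrate; Fluor de Lys developer added for 10 min. Fluorescence at 360 nm excitation/460 nm emission; IC50 fitted from a concentration series.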
# HDAC1 enzyme (recombinant GST-HDAC1), sequence (Q13547 whole entry): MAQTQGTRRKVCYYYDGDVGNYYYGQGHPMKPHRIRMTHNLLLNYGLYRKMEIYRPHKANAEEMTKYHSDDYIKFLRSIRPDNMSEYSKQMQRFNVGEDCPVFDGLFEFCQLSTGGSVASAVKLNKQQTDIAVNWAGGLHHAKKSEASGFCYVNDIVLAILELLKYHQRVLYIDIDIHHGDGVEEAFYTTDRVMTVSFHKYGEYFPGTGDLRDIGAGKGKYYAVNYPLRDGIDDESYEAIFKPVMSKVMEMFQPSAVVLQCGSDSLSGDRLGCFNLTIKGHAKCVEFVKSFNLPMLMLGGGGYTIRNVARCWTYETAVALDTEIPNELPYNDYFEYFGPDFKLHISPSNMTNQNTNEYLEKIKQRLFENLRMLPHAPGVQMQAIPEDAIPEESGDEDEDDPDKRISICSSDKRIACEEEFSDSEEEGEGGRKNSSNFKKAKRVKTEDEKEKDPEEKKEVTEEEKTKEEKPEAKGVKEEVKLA
"GI50 (Colo205 cells; COLO 205, 96 h treatment)",IC50 [2],"GI50 (Colo205 cells; COLO 205, 96 h, 96 h treatment)",Compound,Histone acetylation activities (Histone-3) [1]
0.44 µM,0.16 µM,–,"CCCCNCc1c(-c2ccccc2)nc2cc(/C=C/C(=O)NO)ccn12 [Compound 39, 3-(3-Butylaminomethyl-2-phenyl-imidazo[1,2-a]pyridin-7-yl)-N-hydroxy-acrylamide]",active
0.79 µM,0.24 µM,–,"CCCN(C)Cc1c(-c2ccccc2)nc2cc(C=CC(=O)NO)ccn12 [Compound 40, N-Hydroxy-3-{3-[(methyl-propyl-amino)-methyl]-2-phenyl-imidazo[1,2-a]pyridin-7-yl}-acrylamide]",active
0.26 µM,0.045 µM,–,"CC(C)(C)NCc1c(-c2ccccc2)nc2cc(/C=C/C(=O)NO)ccn12 [Compound 45, 3-[3-(tert-Butylamino-methyl)-2-phenyl-imidazo[1,2-a]pyridin-7-yl]-N-hydroxy-acrylamide]",active
0.59 µM,0.16 µM,–,"CCCCNCc1c(C(C)(C)C)nc2cc(/C=C/C(=O)NO)ccn12 [Compound 49, 3-(2-tert-Butyl-3-butylaminomethyl-imidazo[1,2-a]pyridin-7-yl)-N-hydroxy-acrylamide]",active
0.48 µM,0.084 µM,–,"O=C(/C=C/c1ccn2c(CN3CCCC3)c(-c3ccccc3)nc2c1)NO [Compound 60, N-Hydroxy-3-(2-phenyl-3-pyrrolidin-1-ylmethyl-imidazo[1,2-a]pyridin-7-yl)-acrylamide]",active
0.54 µM,0.063 µM,–,"CCCCNCc1c(-c2ccc(F)cc2)nc2cc(/C=C/C(=O)NO)ccn12 [Compound 63, 3-[3-Butylaminomethyl-2-(4-fluoro-phenyl)-imidazo[1,2-a]pyridin-7-yl]-N-hydroxy-acrylamide]",active
0.14 µM,0.03 µM,–,"CCCCc1nc2cc(/C=C/C(=O)NO)ccn2c1CN(CC)CCC(C)(C)C [Compound 117, 3-(2-Butyl-3-{[(3,3-dimethyl-butyl)-ethyl-amino]-methyl}-imidazo[1,2-a]pyridin-7-yl)-N-hydroxy-acrylamide]",–
0.39 µM,0.15 µM,–,"CCCCc1nc2cc(/C=C/C(=O)NO)ccn2c1CN(CC)CC(CC)CC [Compound 118, 3-(2-Butyl-3-{[ethyl-(2-ethyl-butyl)-amino]-methyl}-imidazo[1,2-a]pyridin-7-yl)-N-hydroxy-acrylamide]",–
0.53 µM,0.2 µM,–,"CCCCc1nc2cc(/C=C/C(=O)NO)ccn2c1CN(CC)CCC(C)CC(C)(C)C (stereo not shown) [Compound 119, 3-(2-Butyl-3-{[ethyl-(3,55-trimethyl-hexyl)-amino]-methyl}-imidazo[1,2-a]pyridin-7-yl)-N-hydroxy-acrylamide]",–
0.68 µM,0.04 µM,–,"CCCCN(CC)Cc1c(-c2ccccc2)nc2cc(/C=C/C(=O)NO)ccn12 [Compound 120, 3-{3-[(Butyl-ethylamino)-methyl]-2-phenyl-imidazo[1,2-a]pyridin-7-yl}-N-hydroxy-acrylamide]",–
0.49 µM,0.03 µM,–,"CCN(CCC(C)C)Cc1c(-c2ccccc2)nc2cc(/C=C/C(=O)NO)ccn12 [Compound 121, 3-(3-{[Ethyl-(3-methyl-butyl)-amino]-methyl}-2-phenyl-imidazo[1,2-a]pyridin-7-yl)-N-hydroxy-acrylamide]",–
0.52 µM,0.05 µM,–,"CCN(CCC(C)(C)C)Cc1c(-c2ccccc2)nc2cc(/C=C/C(=O)NO)ccn12 [Compound 122, 3-(3-{[(3,3-Dimethyl-butyl)-ethyl-amino]-methyl}-2-phenyl-imidazo[1,2-a]pyridin-7-yl)-N-hydroxy-acrylamide]",–
–,0.04 µM,0.18 µM,"CCCc1nc2cc(/C=C/C(=O)NO)ccn2c1CNC(C)(C)C [Compound 123, 3-[3-(tert-Butylamino-methyl)-2-propyl-imidazo[1,2-a]pyridin-7-yl]-N-hydroxy-acrylamide]",–
0.16 µM,0.05 µM,–,"CCN(CCC(C)(C)C)Cc1c(C)nc2cc(/C=C/C(=O)NO)ccn12 [Compound 125, 3-(3-{[(3,3-Dimethyl-butyl)-ethyl-amino]-methyl}-2-methyl-imidazo[1,2-a]pyridin-7-yl)-N-hydroxyacrylamide]",–
0.08 µM,0.03 µM,–,"CCCc1nc2cc(/C=C/C(=O)NO)ccn2c1CN(CC)CCC(C)C [Compound 126, 3-(3-{[Ethyl-(3-methyl-butyl)-amino]-methyl}-2-propyl-imidazo[1,2-a]pyridin-7-yl)-N-hydroxy-acrylamide]",–
–,0.02 µM,0.07 µM,"CCCc1nc2cc(/C=C/C(=O)NO)ccn2c1CN(CC)CCC(C)(C)C [Compound 127, 3-(3-{[(3,3-Dimethyl-butyl)-ethyl-amino]-methyl}-2-propyl-imidazo[1,2-a]pyridin-7-yl)-N-hydroxy-acrylamide]",–
0.07 µM,0.02 µM,–,"CCCCCc1nc2cc(/C=C/C(=O)NO)ccn2c1CNC(C)(C)C [Compound 128, 3-[3-(tert-Butylamino-methyl)-2-pentyl-imidazo[1,2-a]pyridin-7-yl]-N-hydroxy-acrylamide]",–
–,0.04 µM,0.15 µM,"CCCCCc1nc2cc(/C=C/C(=O)NO)ccn2c1CN(CC)CCCC [Compound 129, 3-{3-[(Butyl-ethyl-amino)-methyl]-2-pentyl-imidazo[1,2-a]pyridin-7-yl}-N-hydroxy-acrylamide]",–
–,0.03 µM,0.14 µM,"CCCCCc1nc2cc(/C=C/C(=O)NO)ccn2c1CN(CC)CCC(C)C [Compound 130, 3-(3-{[Ethyl-(3-methyl-butyl)-amino]-methyl}-2-pentyl-imidazo[1,2-a]pyridin-7-yl)-N-hydroxy-acrylamide]",–
0.15 µM,0.03 µM,–,"CCCCCc1nc2cc(/C=C/C(=O)NO)ccn2c1CN(CC)CCC(C)(C)C [Compound 131, 3-(3-{[(3,3-Dimethyl-butyl)-ethyl-amino]-methyl}-2-pentyl-imidazo[1,2a]pyridin-7-yl)-N-hydroxy-acrylamide]",–
0.16 µM,0.04 µM,–,"CCCCN(CC)Cc1c(CCC)nc2cc(/C=C/C(=O)NO)ccn12 [Compound 132, 3-{3-[(Butyl-ethylamino)-methyl]-2-propyl-imidazo[1,2-a]pyridin-7-yl}-N-hydroxy-acrylamide]",–
0.21 µM,0.05 µM,–,"CC(C)Cc1nc2cc(/C=C/C(=O)NO)ccn2c1CNC(C)(C)C [Compound 133, 3-[3-(tert-Butylamino-methyl)-2-isobutyl-imidazo[1,2-a]pyridin-7-yl]-N-hydroxy-acrylamide]",–
–,0.04 µM,0.15 µM,"CCCCN(CC)Cc1c(CC(C)C)nc2cc(/C=C/C(=O)NO)ccn12 [Compound 134, 3-{3-[(Butyl-ethyl-amino)-methyl]-2-isobutyl-imidazo[1,2-a]pyridin-7-yl}-N-hydroxy-acrylamide]",–
0.26 µM,0.03 µM,–,"CCc1nc2cc(/C=C/C(=O)NO)ccn2c1CNC(C)(C)C [Compound 137, 3-[3-(tert-Butylamino-methyl)-2-ethyl-imidazo[1,2-a]pyridin-7-yl]-N-hydroxy-acrylamide]",–
0.18 µM,0.05 µM,–,"CCCCN(CC)Cc1c(CC)nc2cc(/C=C/C(=O)NO)ccn12 [Compound 138, 3-{3-[(Butyl-ethyl-amino)-methyl]-2-ethyl-imidazo[1,2-a]pyridin-7-yl}-N-hydroxy-acrylamide]",–
0.1 µM,0.02 µM,–,"CCc1nc2cc(/C=C/C(=O)NO)ccn2c1CN(CC)CCC(C)C [Compound 139, 3-(2-Ethyl-3-{[ethyl-(3-methyl-butyl)-amino]-methyl}-imidazo[1,2-a]pyridin-7-yl)-N-hydroxy-acrylamide]",–
0.1 µM,0.02 µM,–,"CC(C)CCc1nc2cc(/C=C/C(=O)NO)ccn2c1CNC(C)(C)C [Compound 140, 3-[3-(tert-Butylamino-methyl)-2-(3-methyl-butyl)-imidazo[1,2-a]pyridin-7-yl]-N-hydroxy-acrylamide]",–
0.16 µM,0.04 µM,–,"CCCCN(CC)Cc1c(CCC(C)C)nc2cc(/C=C/C(=O)NO)ccn12 [Compound 141, 3-[3-[(Butyl-ethyl-amino)-methyl]-2-(3-methyl-butyl)-imidazo[1,2a]pyridin-7-yl]-N-hydroxy-acrylamide]",–
0.13 µM,0.04 µM,–,"CCN(CCC(C)(C)C)Cc1c(CCC(C)C)nc2cc(/C=C/C(=O)NO)ccn12 [Compound 143, 3-[3-{[(3,3-Dimethyl-butyl)-ethyl-amino]-methyl}-2-(3-methyl-butyl)-imidazo[1,2-a]pyridin-7-yl]-N-hydroxy-acrylamide]",–
